{"source": "patent US20080262080A1", "about": "“Allergy Suppressive Agent” (KYUSHU UNIVERSITY, NATIONAL UNIVERSITY CORPORATION, priority 2004, published 2008)", "key": {"[1]": {"test_system": "germline IgE heavy chain transcription (εGT)", "assay": "Suppression of IL-4-induced germline IgE heavy chain transcript (εGT) expression in DND39 cells (RT-PCR, blot)", "type": "cell-based, human", "settings": "IL-4 (25 U/ml), chrysin at various concentrations, 48 hours", "protocol": "IL-4 (25 U/ml) and chrysin at various concentrations were added to human mature B cell line DND39 cells and then the cells were incubated for 48 hours. mRNA was collected from the cells and cDNA was synthesized. An RT-PCR amplification product was electrophoresed on an agarose gel and transferred onto a membrane and εGT was thus detected. GAPDH (glyceraldehyde-3-phosphate dehydrogenase) was employed as a control. For each concentration or the control, the blot in the right side indicates the result in a 1/10 amount.\nAs described above, the inhibition of the εGT expression brings about fundamental suppression of IgE production. It is known that human mature B cell line DND39 expresses εGT in response to a stimulus by IL-4. Thus, DND39 cells were incubated in the presence of IL-4 and chrysin and the effect of chrysin on the εGT expression was examined.\nHuman mature B cell line DND39 was subcultured in a RPMI 1640 medium (Nissui), to which 5% of FBS (Intergen) had been added, at 37° C. and 5% CO2 vapor saturation and maintained therein. […]\nThe density of DND39 cells was adjusted to 2×10^5 cells/mL and incubated in the presence of IL-4 (25 U/mL) and chrysin at each concentration. […] Then, the RNA concentration was measured using a spectrophotometer Ultrospec 3000 (Pharmacia Biotech, Piscatway, N.J.). […]"}, "[2]": {"test_system": "high-affinity IgE receptor (FcεRI)", "assay": "FcεRI expression amount on the cell surface of KU812 cells by flow cytometry", "type": "cell-based, human", "settings": "for FcεRI expression suppressive rate (%): 24 hours", "protocol": "By using antihuman FcRI antibody (CRA1), the FcεRI expression amount on the surface of human basophil-like cell line KU812 cells was analyzed by flow cytometry. Cells having been incubated by adding DMSO alone were compared with cells having been incubated by adding chrysin. The ratio of overexpression of FcεRI is indicated in percentage. As a basal medium for incubating cells, use was made of RPMI 1640 (Nissui, Japan), to which 100 U/mL of penicillin (Meiji Pharmaceutical Company, Tokyo, Japan), […] of streptomycin (Meiji Pharmaceutical Company, Tokyo, Japan), 12.5 mM of MaHCO3 (Wako Pure Chemical Industries, Osaka, Japan) and 10 mM of HEPES Wako Pure Chemical Industries) had been added. Fetal bovine serum (FBS) purchased form Bio Source International was added to the basal medium to give a concentration of 5 to 10%. Human basophil-like cell line KU812 employed in this experiment was assigned by Japan Collection of Research Bioresources (JCRB) and subcultured and maintained in RPMI 1640 medium comprising 5 to 10% of FBS at 37° C. in 5% CO2 gas under humidification. KU812 cells were incubated in RPMI 1640 medium, to which chrysin dissolved in DMSO had been added, for 0 to 24 hours. A system wherein the cells were incubated in the medium comprising DMSO alone was used as a control. After incubating, the cells were collected and incubated in 5% FBS-PBS, to which 10 μg/mL of antihuman FcεRI α chain mouse monoclonal antibody CRA-1 (Kyokuto Pharmaceutical) had been added, at 4° C. for 40 to 60 min. As a negative control, 10 μg/mL of mouse control IgG2b antibody (DAKO) was used. Then, the cells were washed with ice-cooled PBS once and incubated in 5% FBS-PBS, to which 10 μg/mL of antimouse IgG2b FITC-labeled antibody (Protos Immunoresearch) had been added, at 4° C. for 40 to 60 min. After incubating, the cells were washed with PBS and then resuspended in PBS. The cell suspension thus obtained was analyzed by flow cytometry. In the flow cytometry analysis, FACS Calibur (Becton Sickinson, Sunnyvale, Calif.) was employed. The secondary antibody reaction and the subsequent procedures were conducted in the dark and the cells were preserved on ice while conducting the analysis. KU812 cells (5×10^5 cells/mL) was incubated in 5% bovine fetal serum comprising RPMI 1640 medium, to which chrysin (0, 1, 5 and 10 μM) and apigenin (purchased from Aldrich Chem. Co., St. Louis, Mo.; 0, 1, 5 and 10 μM) had been added, for 24 hours. After incubating, the FcεRI expression level on the cell surface was measured by flow cytometry (experimental procedure: see [0047])."}}, "data": [{"smiles": "O=c1cc(-c2ccccc2)oc2cc(O)cc(O)c12", "note": "[Chrysin, 5,7-dihydroxyflavone]", "values": [{"measurement": "εGT expression", "setting": "[1]", "result": "concentration-dependently suppressed"}, {"measurement": "FcεRI expression amount on cell surface", "setting": "[2]; flow cytometry with CRA1 antibody, compared with DMSO alone", "result": "lowering"}, {"measurement": "FcεRI expression suppressive rate (%)", "setting": "[2]; single agent 1 μM", "result": 0, "unit": "%"}, {"measurement": "FcεRI expression suppressive rate (%)", "setting": "[2]; single agent 5 μM", "result": 11.5, "unit": "%"}, {"measurement": "FcεRI expression suppressive rate (%)", "setting": "[2]; single agent 10 μM", "result": 19.8, "unit": "%"}]}]}
